Molecular target: T1, BACE1 enzyme (Homo sapiens, UniProt P56817)
T1 construct: endogenous in cells; washed 48,000 x g membrane pellet / cell homogenate
Test: Radioligand displacement assay with a radiolabeled BACE inhibitor
Assay type: binding
Conditions: HEK293-9B.A1 cell homogenate overexpressing BACE1, 1 nM radioligand, pH 5.0, 1.5 hr at 25° C.; read-out: Activity Rating (activity based on IC50 values)
Text: There are a number of methods by which inhibitors of the BACE enzyme can be identified experimentally. The enzyme can be obtained from membrane samples from natural tissues or cultured cells or can be expressed recombinantly in a host cell by well known methods of molecular biology. The whole enzyme or a portion thereof can be expressed, for example, in bacterial, insect or mammalian cells to obtain a catalytically active enzyme species. The enzymatic activity and/or ligand binding capability of the enzyme can be assessed within these membrane samples, or the enzyme can be purified to varying extents. As an illustrative example, the nucleic acid sequence encoding the pro and catalytic domains of human BACE can be appended on the 5′ end with an untranslated and signal sequence from the gene for acetylcholinesterase, and on the 3′ end with a sequence encoding a poly-histidine tag. This cDNA can then be expressed in Drosophila melanogaster S2 cells in which the signal and pro sequences of the transcribed/translated protein are removed by cellular proteases and the catalytic domain, appended by a C-terminal poly-histidine tag, is secreted out into the cellular medium. The enzyme can then be purified from the culture medium by nickel affinity chromatography by methods well known to those trained in the art [Mallender, W. et al., “Characterization of recombinant, soluble beta-secretase from an insect cell expression system.” Mol. Pharmacol. 2001, 59: 619-626]. Similar strategies for expressing and purifying various forms of BACE in bacterial, mammalian and other cell types would be known to one skilled in the art. A preferred method for determining the potency of a test compound in binding to the BACE enzyme is by monitoring the displacement of a suitable radioligand.
Radioligand displacement assays with a radiolabeled BACE inhibitor (WO 2004 013098, compound 3, where the methoxy group is substituted for C(^3H)3) were carried out using standard methods (Keen, M. (1999) in Receptor Binding Techniques (Walker, J. M. ed) p. 106 Humana Press, Totowa, N.J.). The HEK293-9B.A1 cell line, which overexpresses the BACE1 enzyme, was derived from HEK293 cells (Simmons, N. L. (1990) A cultured human renal epithelioid cell line responsive to vasoactive intestinal peptide. Exp. Physiol. 75:309-19.) by RAGE™ (Harrington, J. J. et al. (2001) Creation of genome-wide protein expression libraries using random activation of gene expression. Nat. Biotechnol. 19:440-5.; U.S. Pat. Nos. 6,410,266 and 6,361,972). T225 flask cultures of HEK293-9B.A1 were grown to 80% confluency in DMEM supplemented with 2 mM L-glutamine, 10 μg/mL penicillin, 10 μg/mL streptomycin, 3 μg/mL puromycin, 100 nM methotrexate, and 10% fetal bovine serum (Invitrogen, Carlsbad, Calif.), harvested, and resuspended at 2×10^8 cells per 10 mL of lysis buffer consisting of 50 mM HEPES pH 7.0 containing a protease inhibitor cocktail of AEBSF 104 μM, aprotinin 80 nM, leupeptin 2 μM, bestatin 4 μM, pepstatin A 1.5 μM, and E-64 1.4 μM (0.1% of protease inhibitor cocktail P8340, Sigma-Aldrich, St. Louis, Mo.) at 4° C. The resuspended cells were homogenized using a Polytron (Brinkman, Westbury, N.Y.) at setting 6 for 10 sec., then centrifuged at 48,000×g for 10 min. The resulting pellet was washed by repeating the resuspension, homogenization and centrifugation steps. The final pellet was resuspended in buffer at 4° C. to yield a total protein concentration of 5 mg/mL, then aliquots were frozen in liquid nitrogen for further storage at −70° C. Immediately before carrying out a binding assay, an aliquot of cell homogenate was thawed and diluted to a concentration of 100 μg/mL in assay buffer consisting of 50 mM HEPES pH 5.0 and 0.1% CHAPSO. […]

T1 sequence (P56817 46-501): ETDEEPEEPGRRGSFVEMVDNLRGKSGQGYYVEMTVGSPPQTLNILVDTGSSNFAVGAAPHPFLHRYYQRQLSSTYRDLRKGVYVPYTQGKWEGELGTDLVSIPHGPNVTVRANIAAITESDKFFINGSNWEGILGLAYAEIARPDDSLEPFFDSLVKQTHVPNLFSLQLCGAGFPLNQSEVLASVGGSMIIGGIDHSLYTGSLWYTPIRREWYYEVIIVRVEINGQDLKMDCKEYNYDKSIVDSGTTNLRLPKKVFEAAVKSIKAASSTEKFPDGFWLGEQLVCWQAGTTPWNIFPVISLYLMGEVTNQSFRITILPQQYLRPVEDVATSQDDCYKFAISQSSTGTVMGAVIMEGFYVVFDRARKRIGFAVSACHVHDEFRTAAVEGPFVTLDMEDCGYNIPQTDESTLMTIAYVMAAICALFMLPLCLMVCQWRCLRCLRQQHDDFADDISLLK

SMILES	IC50
CCCC[C@H](C)C(=O)N(C)[C@H]1CC=CCO[C@H]2CC[C@H](C2)NC[C@@H](O)[C@H](Cc2cc(F)cc(F)c2)NC1=O (racemic) [Example 25, (S)-2-methyl-hexanoic acid [(1R,4R,5S,8S,14S)-5-(3,5-difluoro-benzyl)-4-hydroxy-7-oxo-13-oxa-2,6-diaza-bicyclo[12.2.1]heptadec-10-en-8-yl]-methyl-amide and (S)-2-methyl-hexanoic acid [(1S,4R,5S,8S,14R)-5-(3,5-difluoro-benzyl)-4-hydroxy-7-oxo-13-oxa-2,6-diaza-bicyclo[12.2.1]heptadec-10-en-8-yl]-methyl-amide]	10 to 500 nM
CCCCCS(=O)(=O)N(C)[C@H]1CC=CCO[C@@H]2Cc3ccc(OC)cc3[C@H]2NC[C@@H](O)[C@H](Cc2ccccc2)NC1=O (racemic) [Example 26, pentane-1-sulfonic acid ((1R,7S,10S,11R,14R)-10-benzyl-11-hydroxy-17-methoxy-8-oxo-2-oxa-9,13-diaza-tricyclo[12.7.0.0^15,20]henicosa-4,15(20),16,18-tetraen-7-yl)-methyl-amide and pentane-1-sulfonic acid ((1S,7S,10S,11R,14S)-10-benzyl-11-hydroxy-17-methoxy-8-oxo-2-oxa-9,13-diaza-tricyclo[12.7.0.0^15,20]henicosa-4,15(20),16,18-tetraen-7-yl)-methyl-amide]	> 500 nM
COc1ccc2c(c1)[C@@H]1C[C@H]2NCCCC[C@H](N(C)S(=O)(=O)CCC(F)(F)F)C(=O)N[C@@H](Cc2ccccc2)[C@H](O)CN1 (single isomer, unassigned) [Example 52]	10 to 500 nM
COc1ccc2c(c1)[C@@H]1C[C@H]2OCC=CC[C@H](N(C)C(=O)C(C)CC(F)(F)F)C(=O)N[C@@H](Cc2cc(F)cc(F)c2)[C@H](O)CN1 (single isomer, unassigned; diastereomer a) [Example 21]	< 10 nM
COc1ccc2c(c1)[C@@H]1C[C@H]2COCC=CC[C@H](N(C)S(=O)(=O)CCC(F)(F)F)C(=O)N[C@@H](Cc2ccccc2)[C@H](O)CN1 (single isomer, unassigned; isomer a) [Example 35]	< 10 nM
CCCC[C@H]1CC=CCO[C@@H]2C[C@H](NC[C@@H](O)[C@H](Cc3cc(F)cc(F)c3)NC1=O)c1cc(OC)ccc12 [Example 8, (1S,4R,5S,8S,14R)-8-butyl-5-(3,5-difluoro-benzyl)-4-hydroxy-18-methoxy-13-oxa-2,6-diaza-tricyclo[12.6.1.0^15,20]henicosa-10,15(20),16,18-tetraen-7-one]	> 500 nM
CCCC[C@H](C)C(=O)N(C)[C@H]1CC=CCOC[C@@H](c2ccccc2)NC[C@@H](O)[C@H](Cc2cc(F)cc(F)c2)NC1=O [Example 18, (S)-2-methyl-hexanoic acid [(3R,6R,7S,10S)-7-(3,5-difluoro-benzyl)-6-hydroxy-9-oxo-3-phenyl-1-oxa-4,8-diaza-cyclotetradec-12-en-10-yl]-methyl-amide]	> 500 nM
CCCC(CCC)C(=O)N(C)[C@H]1CC=CCOCCC(c2cccc(OC)c2)NC[C@@H](O)[C@H](Cc2ccccc2)NC1=O (stereo partly drawn) [Example 19, N-((7R,8S,11S)-8-benzyl-7-hydroxy-4-(3-methoxyphenyl)-10-oxo-1-oxa-5,9-diazacyclopentadec-13-en-11-yl)-N-methyl-2-propylpentanamide]	> 500 nM
CCOc1ccsc1C(=O)N(C)[C@H]1CC=CCO[C@@H]2C[C@H](NC[C@@H](O)[C@H](Cc3ccccc3)NC1=O)c1cc(OC)ccc12 [Example 20, 3-ethoxy-thiophene-2-carboxylic acid ((1S,4R,5S,8S,14R)-5-benzyl-4-hydroxy-18-methoxy-7-oxo-13-oxa-2,6-diaza-tricyclo[12.6.1.0^15,20]henicosa-10,15(20),16,18-tetraen-8-yl)-methyl-amide]	10 to 500 nM
CCCCCS(=O)(=O)N(C)[C@H]1CCCCO[C@H]2Cc3ccc(OC)cc3[C@H]2NC[C@@H](O)[C@H](Cc2ccccc2)NC1=O [Example 29, pentane-1-sulfonic acid ((1S,7S,10S,11R,14R)-10-benzyl-11-hydroxy-17-methoxy-8-oxo-2-oxa-9,13-diaza-tricyclo[12.7.0.0^15,20]henicosa-15(20),16,18-trien-7-yl)-methyl-amide]	10 to 500 nM
CCCCCS(=O)(=O)N(C)[C@H]1CC=CCO[C@@H]2C[C@H](NC[C@@H](O)[C@H](Cc3cc(Cl)cc(Cl)c3)NC1=O)c1cc(OC)ccc12 [Example 43]	< 10 nM
CCCC[C@H](C)C(=O)N(C)[C@H]1CCCCO[C@@H]2C[C@H](NC[C@@H](O)[C@H](Cc3cc(Cl)cc(Cl)c3)NC1=O)c1cc(OC)ccc12 [Example 49, (S)-2-methyl-hexanoic acid ((1S,4R,5S,8S,14R)-5-(3,5-dichloro-benzyl)-4-hydroxy-18-methoxy-7-oxo-13-oxa-2,6-diaza-tricyclo[12.6.1.0^15,20]henicosa-15(20),16,18-trien-8-yl)-methyl-amide]	< 10 nM
COc1ccc2c(c1)[C@@H]1CC2N(C)CCCCC[C@H](N(C)S(=O)(=O)CCC(F)(F)F)C(=O)N[C@@H](Cc2ccccc2)[C@H](O)CN1 [Example 56, 3,3,3-trifluoro-propane-1-sulfonic acid ((1S,4R,5S,8S)-5-benzyl-4-hydroxy-19-methoxy-14-methyl-7-oxo-2,6,14-triaza-tricyclo[13.6.1.0^16,21]docosa-16(21),17,19-trien-8-yl)-methyl-amide]	10 to 500 nM
CN([C@H]1CCC=CCO[C@@H]2C[C@H](NC[C@@H](O)[C@H](Cc3ccccc3)NC1=O)c1cc(Br)ccc12)S(=O)(=O)CCC(F)(F)F [Example 61, 3,3,3-trifluoro-propane-1-sulfonic acid ((1S,4R,5S,8S,15R)-5-benzyl-19-bromo-4-hydroxy-7-oxo-14-oxa-2,6-diaza-tricyclo[13.6.1.0^16,21]docosa-11,16(21),17,19-tetraen-8-yl)-methyl-amide]	< 10 nM
CC(C)CCc1ccc2c(c1)[C@@H]1C[C@H]2OCC=CCCCC(=O)N[C@@H](Cc2cc(F)cc(F)c2)[C@H](O)CN1 [Example 69, (1S,4R,5S,15R)-5-(3,5-difluoro-benzyl)-4-hydroxy-19-(3-methyl-butyl)-14-oxa-2,6-diaza-tricyclo[13.6.1.0^16,21]docosa-11,16(21),17,19-tetraen-7-one]	10 to 500 nM
COc1ccc2c(c1)[C@@H]1C[C@H]2OCC=CCC[C@H](N(C)S(=O)(=O)CCC(F)(F)F)C(=O)N[C@@H](CC(C)C)[C@H](O)CN1 [Example 70, 3,3,3-trifluoro-propane-1-sulfonic acid ((1S,4R,5S,8S,15R)-4-hydroxy-5-isobutyl-19-methoxy-7-oxo-14-oxa-2,6-diaza-tricyclo[13.6.1.0^16,21]docosa-11,16(21),17,19-tetraen-8-yl)-methyl-amide]	< 10 nM
CC(C)Oc1ccc2c(c1)[C@@H]1C[C@H]2OCC=CCCCC(=O)N[C@@H](Cc2cc(F)cc(F)c2)[C@H](O)CN1 [Example 78, (1S,4R,5S,15R)-5-(3,5-difluoro-benzyl)-4-hydroxy-19-isopropoxy-14-oxa-2,6-diaza-tricyclo[13.6.1.0^16,21]docosa-11,16(21),17,19-tetraen-7-one]	< 10 nM
CC(C)C[C@@H]1NC(=O)CCCC=CCO[C@@H]2C[C@H](NC[C@H]1O)c1cc(OC(C)C)ccc12 [Example 79, (1S,4R,5S,15R)-4-hydroxy-5-isobutyl-19-isopropoxy-14-oxa-2,6-diaza-tricyclo[13.6.1.0^16,21]docosa-11,16(21),17,19-tetraen-7-one]	> 500 nM

Reference: patent publication US7772221B2, “Diaminopropane derived macrocycles as inhibitors of β amyloid production” (Bristol-Meyers Squibb Company, priority 2007, dated 2010)
